{"source": "ChEMBL document CHEMBL1148920", "about": "“Ingenamine G and cyclostellettamines G-I, K, and L from the new Brazilian species of marine sponge Pachychalina sp” (2004)", "assay_type_in_all_cases": "functional", "key": {"MCF7": {"test_system": "MCF7", "assay": "Cytotoxicity against human MCF7 cells"}, "HCT-8": {"test_system": "HCT-8", "assay": "Cytotoxicity against human HCT8 cells"}, "Staphylococcus aureus": {"test_system": "Staphylococcus aureus", "assay": "Antibacterial activity against Staphylococcus aureus ATCC 25923"}, "[1]": {"test_system": "Mycobacterium tuberculosis", "assay": "Antimycobacterial activity against Mycobacterium tuberculosis H37Rv"}, "B16": {"test_system": "B16", "assay": "Cytotoxicity against mouse B16 cells"}, "Escherichia coli": {"test_system": "Escherichia coli", "assay": "Antibacterial activity against Escherichia coli ATCC 25922"}}, "data": [{"smiles": "OC1/C=C\\C=C/CCN2CC3C=C4CCCCCCCCCC/C=C\\CCN5CCC3C(C1)(C5)C42", "note": "(stereo unspecified) [INGENAMINE G]", "values": [{"measurement": "Activity", "setting": "MCF7", "value": 11.3, "unit": "µg/mL"}, {"measurement": "Activity", "setting": "HCT-8", "value": 8.6, "unit": "µg/mL"}, {"measurement": "Activity", "setting": "Staphylococcus aureus", "value": 105, "unit": "µg/mL"}, {"measurement": "Activity", "setting": "[1]", "value": 8, "unit": "µg/mL"}, {"measurement": "Activity", "setting": "B16", "value": 9.8, "unit": "µg/mL"}, {"measurement": "Activity", "setting": "Escherichia coli", "value": 75, "unit": "µg/mL"}]}]}
